From ChEMBL document CHEMBL3769388, “Optimization of a Dicarboxylic Series for in Vivo Inhibition of Citrate Transport by the Solute Carrier 13 (SLC13) Family” (J Med Chem, 2016)
Converted amounts (≈) assume the structure as drawn. The source made the active and inactive calls. No cut-off for these calls is given here.

Legend:
[1] = biological target: cGMP-inhibited 3',5'-cyclic phosphodiesterase 3B (Homo sapiens) (UniProt Q13370); experiment: Inhibition of PDE3B (unknown origin)
[2] = biological target: D(1A) dopamine receptor (Homo sapiens) (UniProt P21728); experiment: Inhibition of D1 (unknown origin)
[3] = Thermodynamic solubility of compound in aqueous solution at pH 6.5; type: physicochemical; details: read-out: Therm_solubility
[4] = biological target: Tyrosine-protein kinase Lck (Homo sapiens) (UniProt P06239); experiment: Inhibition of LCK (unknown origin)
[5] = Total plasma clearance in Wistar Han rat at 1 mg/kg, iv by LC-MS/MS analysis; type: ADME, organism-based
[6] = biological target: Na(+)/citrate cotransporter (Rattus norvegicus, UniProt Q8CJ44); experiment: Inhibition of NaCT in rat hepatocytes assessed as [14C]-citrate uptake after 30 mins by scintillation counting method; type: cell-based, Hepatocyte
[7] = biological target: Gastrin/cholecystokinin type B receptor (Homo sapiens) (UniProt P32239); experiment: Inhibition of CCKBR (unknown origin)
[8] = biological target: 5-hydroxytryptamine receptor 2A (Homo sapiens) (UniProt P28223); experiment: Inhibition of 5HT2A receptor (unknown origin)
Mus musculus [9] = species on record: Mus musculus; experiment: Decrease in [14C]citrate uptake in DIO mouse liver during hyperinsulinemic-euglycemic clamp; type: functional, organism-based
[10] = biological target: Beta-2 adrenergic receptor (Homo sapiens) (UniProt P07550); experiment: Inhibition of ADRB2 (unknown origin)
[11] = biological target: 3',5'-cyclic-AMP phosphodiesterase 4D (Homo sapiens) (UniProt Q08499); experiment: Inhibition of PDE4D3 (unknown origin)
[12] = biological target: Angiotensin-converting enzyme (Homo sapiens) (UniProt P12821); experiment: Inhibition of ACE1 (unknown origin)
[13] = biological target: Histamine H3 receptor (Homo sapiens) (UniProt Q9Y5N1); experiment: Inhibition of H3 (unknown origin)
[14] = biological target: Glucocorticoid receptor (Homo sapiens) (UniProt P04150); experiment: Inhibition of GR (unknown origin)
Cytochrome P450 2C9 = Cytochrome P450 2C9 (Homo sapiens, UniProt P11712); experiment: Inhibition of CYP2C9 (unknown origin); type: ADME
[15] = biological target: Muscarinic acetylcholine receptor M1 (Homo sapiens) (UniProt P11229); experiment: Inhibition of M1 (unknown origin)
[16] = biological target: 5-hydroxytryptamine receptor 2B (Homo sapiens) (UniProt P41595); experiment: Inhibition of 5HT2B receptor (unknown origin)
Cytochrome P450 2D6 = Cytochrome P450 2D6 (Homo sapiens, UniProt P10635); experiment: Inhibition of CYP2D6 (unknown origin); type: ADME
[17] = biological target: Gamma-aminobutyric acid receptor subunit alpha-1 (Homo sapiens) (UniProt P14867); experiment: Inhibition of GABRA1 (unknown origin)
Homo sapiens = species on record: Homo sapiens; experiment: Inhibition of PDE3A1 (unknown origin)
[18] = Clearance in mouse hepatocytes assessed per 10^6 cells; type: ADME, cell-based, Hepatocyte; details: read-out: CLH
[19] = biological target: Cannabinoid receptor 1 (Homo sapiens) (UniProt P21554); experiment: Inhibition of CB1 (unknown origin)
[20] = biological target: Muscarinic acetylcholine receptor M2 (Homo sapiens) (UniProt P08172); experiment: Inhibition of M2 (unknown origin)
Cytochrome P450 1A2 = Cytochrome P450 1A2 (Homo sapiens, UniProt P05177); experiment: Inhibition of CYP1A2 (unknown origin); type: ADME
[21] = biological target: Histamine H2 receptor (Homo sapiens) (UniProt P25021); experiment: Inhibition of H2 (unknown origin)
[22] = biological target: cGMP-specific 3',5'-cyclic phosphodiesterase (Homo sapiens) (UniProt O76074); experiment: Inhibition of PDE5A1 (unknown origin)
[23] = biological target: Na(+)/citrate cotransporter (Mus musculus, UniProt Q67BT3); experiment: Inhibition of NaCT in mouse hepatocytes assessed as [14C]-citrate uptake after 30 mins by scintillation counting method; type: cell-based, Hepatocyte
[24] = biological target: Sodium-dependent serotonin transporter (Homo sapiens) (UniProt P31645); experiment: Inhibition of 5HTT (unknown origin)
Cytochrome P450 2C8 = Cytochrome P450 2C8 (Homo sapiens, UniProt P10632); experiment: Inhibition of CYP2C8 (unknown origin); type: ADME
Mus musculus [25] = experiment: Effect on glucose infusion rate in DIO C57/B6 mouse during hyperinsulinemic-euglycemic clamp at 44 mg/kg/hr for 90 mins; type: functional, organism-based
Rattus norvegicus [26] = experiment: Decrease in [14C]citrate uptake in iv dosed Wistar Han rat liver measured after 185 to 200 mins by scintillation counting method; type: functional, organism-based
[27] = biological target: Alpha-2B adrenergic receptor (Homo sapiens) (UniProt P18089); experiment: Inhibition of ADRA2B (unknown origin)
[28] = biological target: Acetylcholinesterase (Homo sapiens) (UniProt P22303); experiment: Inhibition of ACHE (unknown origin)
[29] = biological target: Voltage-gated inwardly rectifying potassium channel KCNH2 (Homo sapiens, UniProt Q12809); experiment: Inhibition of human ERG
Rattus norvegicus [30] = species on record: Rattus norvegicus; experiment: Increase in […][13C]-citrate levels in rat liver measured over 140 to 150 mins by UPLC-MS/MS analysis; type: functional, organism-based
Rattus norvegicus [31] = species on record: Rattus norvegicus; experiment: Increase in […][13C]-citrate levels in rat plasma measured over 140 to 150 mins by UPLC-MS/MS analysis; type: functional, organism-based
[32] = AUC(0 to t) in Wistar Han rat at 5 mg/kg, po by LC-MS/MS analysis; type: ADME, organism-based; details: in vivo
[33] = biological target: Epidermal growth factor receptor (Homo sapiens) (UniProt P00533); experiment: Inhibition of EGFR (unknown origin)
[34] = biological target: Amine oxidase [flavin-containing] A (Homo sapiens, UniProt P21397); experiment: Inhibition of MAOA (unknown origin)
[35] = biological target: Beta-1 adrenergic receptor (Homo sapiens) (UniProt P08588); experiment: Inhibition of ADRB1 (unknown origin)
Rattus norvegicus [36] = experiment: Decrease in [14C]citrate uptake in iv dosed Wistar Han rat kidney measured after 185 to 200 mins by scintillation counting method; type: functional, organism-based
[37] = Clearance in rat hepatocytes assessed per 10^6 cells; type: ADME, cell-based, Hepatocyte; details: read-out: CLH
[38] = biological target: Histamine H1 receptor (Homo sapiens) (UniProt P35367); experiment: Inhibition of H1 (unknown origin)
[39] = biological target: Sodium-dependent phosphate transport protein 2A (Homo sapiens) (UniProt Q06495); experiment: Inhibition of NaPiA2 (unknown origin)
[40] = biological target: Sodium-dependent noradrenaline transporter (Homo sapiens) (UniProt P23975); experiment: Inhibition of NAT (unknown origin)
[41] = biological target: Peroxisome proliferator-activated receptor gamma (Homo sapiens) (UniProt P37231); experiment: Inhibition of PPAR gamma (unknown origin)
[42] = biological target: Substance-P receptor (Homo sapiens) (UniProt P25103); experiment: Inhibition of NK1 receptor (unknown origin)
[43] = biological target: Sodium-dependent dopamine transporter (Homo sapiens) (UniProt Q01959); experiment: Inhibition of DAT (unknown origin)
[44] = biological target: Neuronal acetylcholine receptor; alpha4/beta2 (Homo sapiens) (UniProt P17787+P43681); experiment: Inhibition of alpha-4/beta-2 (unknown origin); type: protein-complex assay
[45] = biological target: 5-hydroxytryptamine receptor 1B (Homo sapiens) (UniProt P28222); experiment: Inhibition of 5HT1B (unknown origin)

Glucocorticoid receptor (Homo sapiens), sequence (P04150 whole entry): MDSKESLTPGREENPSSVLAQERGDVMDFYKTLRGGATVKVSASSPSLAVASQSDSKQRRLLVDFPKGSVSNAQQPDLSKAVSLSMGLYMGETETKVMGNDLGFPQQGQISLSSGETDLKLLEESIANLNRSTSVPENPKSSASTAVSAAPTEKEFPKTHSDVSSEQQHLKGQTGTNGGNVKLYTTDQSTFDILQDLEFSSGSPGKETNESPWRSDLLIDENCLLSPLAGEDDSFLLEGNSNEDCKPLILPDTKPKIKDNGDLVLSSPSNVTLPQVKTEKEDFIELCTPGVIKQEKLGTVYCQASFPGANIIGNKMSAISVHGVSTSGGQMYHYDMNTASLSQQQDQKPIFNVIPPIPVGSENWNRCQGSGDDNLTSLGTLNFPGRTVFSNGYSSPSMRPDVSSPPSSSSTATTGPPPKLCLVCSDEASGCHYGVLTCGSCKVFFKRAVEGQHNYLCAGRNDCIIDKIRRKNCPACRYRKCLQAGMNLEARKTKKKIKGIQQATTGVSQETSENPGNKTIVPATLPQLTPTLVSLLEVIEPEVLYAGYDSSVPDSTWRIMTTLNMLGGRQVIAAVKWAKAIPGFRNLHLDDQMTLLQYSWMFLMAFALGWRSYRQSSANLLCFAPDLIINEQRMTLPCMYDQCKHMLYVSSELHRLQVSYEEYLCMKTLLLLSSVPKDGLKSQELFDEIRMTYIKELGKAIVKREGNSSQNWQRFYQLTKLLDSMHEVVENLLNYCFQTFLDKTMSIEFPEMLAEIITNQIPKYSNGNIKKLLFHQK
Cytochrome P450 2C8, sequence (P10632 whole entry, the tested form may be a part): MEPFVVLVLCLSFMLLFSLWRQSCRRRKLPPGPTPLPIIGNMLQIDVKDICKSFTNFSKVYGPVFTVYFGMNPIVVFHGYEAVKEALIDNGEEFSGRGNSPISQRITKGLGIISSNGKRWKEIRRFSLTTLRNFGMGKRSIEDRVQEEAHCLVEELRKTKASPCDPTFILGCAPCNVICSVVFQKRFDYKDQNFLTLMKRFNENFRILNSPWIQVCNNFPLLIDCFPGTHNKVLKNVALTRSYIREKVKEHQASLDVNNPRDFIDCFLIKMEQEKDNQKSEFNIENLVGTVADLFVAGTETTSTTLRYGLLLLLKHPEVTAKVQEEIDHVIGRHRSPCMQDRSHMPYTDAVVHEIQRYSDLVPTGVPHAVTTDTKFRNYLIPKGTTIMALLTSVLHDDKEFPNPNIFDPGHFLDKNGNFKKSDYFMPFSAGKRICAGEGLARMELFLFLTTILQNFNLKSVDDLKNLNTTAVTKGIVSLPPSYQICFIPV
Histamine H2 receptor (Homo sapiens), sequence (P25021 whole entry): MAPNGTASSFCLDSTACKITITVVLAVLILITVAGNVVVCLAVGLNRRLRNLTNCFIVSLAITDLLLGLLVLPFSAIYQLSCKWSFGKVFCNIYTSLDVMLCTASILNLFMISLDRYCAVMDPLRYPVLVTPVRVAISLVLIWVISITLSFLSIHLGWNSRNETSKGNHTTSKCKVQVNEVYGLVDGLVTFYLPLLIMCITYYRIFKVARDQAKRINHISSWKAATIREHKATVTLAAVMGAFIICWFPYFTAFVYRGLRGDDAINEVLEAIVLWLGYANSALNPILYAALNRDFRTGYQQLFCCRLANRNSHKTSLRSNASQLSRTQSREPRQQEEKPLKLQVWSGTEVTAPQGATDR
Tyrosine-protein kinase Lck (Homo sapiens), sequence (P06239 2-509 limits assumed): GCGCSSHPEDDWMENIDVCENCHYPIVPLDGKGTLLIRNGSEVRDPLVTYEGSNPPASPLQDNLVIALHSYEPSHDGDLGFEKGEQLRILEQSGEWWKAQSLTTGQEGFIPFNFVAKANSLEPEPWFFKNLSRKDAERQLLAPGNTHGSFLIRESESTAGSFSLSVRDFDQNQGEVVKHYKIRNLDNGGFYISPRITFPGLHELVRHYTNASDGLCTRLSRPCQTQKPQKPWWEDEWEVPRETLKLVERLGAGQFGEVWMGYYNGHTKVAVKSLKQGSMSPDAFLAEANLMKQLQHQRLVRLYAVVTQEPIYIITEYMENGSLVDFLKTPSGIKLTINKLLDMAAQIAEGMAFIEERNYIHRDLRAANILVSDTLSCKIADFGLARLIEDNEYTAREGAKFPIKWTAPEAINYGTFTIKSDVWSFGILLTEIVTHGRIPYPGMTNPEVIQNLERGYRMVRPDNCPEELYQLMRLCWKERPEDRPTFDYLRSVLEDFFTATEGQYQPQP
Cannabinoid receptor 1 (Homo sapiens), sequence (P21554 whole entry): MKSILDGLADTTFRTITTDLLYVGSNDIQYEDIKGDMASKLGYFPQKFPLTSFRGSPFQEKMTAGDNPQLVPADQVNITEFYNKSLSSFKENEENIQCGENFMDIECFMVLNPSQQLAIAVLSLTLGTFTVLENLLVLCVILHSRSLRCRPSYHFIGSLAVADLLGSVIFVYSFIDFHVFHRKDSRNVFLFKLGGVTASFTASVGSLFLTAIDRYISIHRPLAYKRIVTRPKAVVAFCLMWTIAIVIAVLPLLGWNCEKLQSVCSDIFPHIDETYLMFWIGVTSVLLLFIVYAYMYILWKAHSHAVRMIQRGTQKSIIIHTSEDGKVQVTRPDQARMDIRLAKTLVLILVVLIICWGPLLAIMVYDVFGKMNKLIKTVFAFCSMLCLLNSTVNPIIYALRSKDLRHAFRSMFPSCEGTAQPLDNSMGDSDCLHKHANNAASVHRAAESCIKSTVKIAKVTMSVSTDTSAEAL
Cytochrome P450 1A2, sequence (P05177 whole entry): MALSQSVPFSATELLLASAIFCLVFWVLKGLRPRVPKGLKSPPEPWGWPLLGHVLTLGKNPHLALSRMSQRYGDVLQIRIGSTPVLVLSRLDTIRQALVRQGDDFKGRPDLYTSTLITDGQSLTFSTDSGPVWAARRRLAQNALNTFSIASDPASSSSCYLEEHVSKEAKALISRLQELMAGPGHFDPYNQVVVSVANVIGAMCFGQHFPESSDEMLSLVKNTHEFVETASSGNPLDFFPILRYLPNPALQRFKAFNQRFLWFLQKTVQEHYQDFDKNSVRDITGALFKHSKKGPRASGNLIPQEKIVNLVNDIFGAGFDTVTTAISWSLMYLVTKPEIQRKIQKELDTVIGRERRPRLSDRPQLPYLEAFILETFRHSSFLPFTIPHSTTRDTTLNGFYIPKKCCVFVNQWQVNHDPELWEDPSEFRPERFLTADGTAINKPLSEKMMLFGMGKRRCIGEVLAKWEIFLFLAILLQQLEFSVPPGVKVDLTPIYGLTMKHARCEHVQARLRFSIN
cGMP-inhibited 3',5'-cyclic phosphodiesterase 3B (Homo sapiens), sequence (Q13370 whole entry, looked up): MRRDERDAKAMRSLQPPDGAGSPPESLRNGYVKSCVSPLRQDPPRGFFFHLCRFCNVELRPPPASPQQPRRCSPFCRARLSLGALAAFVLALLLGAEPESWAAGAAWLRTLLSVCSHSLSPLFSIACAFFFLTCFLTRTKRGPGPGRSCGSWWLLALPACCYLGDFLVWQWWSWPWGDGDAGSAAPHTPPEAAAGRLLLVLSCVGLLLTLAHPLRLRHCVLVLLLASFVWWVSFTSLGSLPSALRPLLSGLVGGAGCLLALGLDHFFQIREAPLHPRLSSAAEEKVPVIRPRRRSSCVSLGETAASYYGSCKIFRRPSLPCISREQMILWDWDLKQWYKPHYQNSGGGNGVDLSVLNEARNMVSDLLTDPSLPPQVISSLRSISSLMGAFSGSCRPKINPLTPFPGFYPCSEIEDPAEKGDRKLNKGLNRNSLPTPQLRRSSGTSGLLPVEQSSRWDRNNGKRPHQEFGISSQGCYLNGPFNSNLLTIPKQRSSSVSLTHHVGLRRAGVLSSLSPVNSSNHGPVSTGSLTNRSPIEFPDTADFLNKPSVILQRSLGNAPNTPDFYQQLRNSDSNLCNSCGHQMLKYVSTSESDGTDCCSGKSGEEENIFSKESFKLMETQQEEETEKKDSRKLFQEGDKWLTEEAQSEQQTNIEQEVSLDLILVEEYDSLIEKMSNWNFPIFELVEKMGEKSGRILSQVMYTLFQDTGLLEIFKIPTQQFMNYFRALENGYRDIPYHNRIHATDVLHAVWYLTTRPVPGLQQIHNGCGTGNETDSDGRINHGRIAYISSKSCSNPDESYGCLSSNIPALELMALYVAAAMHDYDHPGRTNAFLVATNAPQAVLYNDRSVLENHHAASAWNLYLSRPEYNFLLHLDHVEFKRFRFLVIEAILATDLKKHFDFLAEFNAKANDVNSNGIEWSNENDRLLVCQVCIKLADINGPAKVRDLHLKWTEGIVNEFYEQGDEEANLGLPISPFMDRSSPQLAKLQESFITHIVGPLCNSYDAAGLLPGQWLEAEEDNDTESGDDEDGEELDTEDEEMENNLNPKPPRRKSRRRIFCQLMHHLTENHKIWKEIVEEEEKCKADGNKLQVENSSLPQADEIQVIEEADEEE
Cytochrome P450 2C9, sequence (P11712 whole entry): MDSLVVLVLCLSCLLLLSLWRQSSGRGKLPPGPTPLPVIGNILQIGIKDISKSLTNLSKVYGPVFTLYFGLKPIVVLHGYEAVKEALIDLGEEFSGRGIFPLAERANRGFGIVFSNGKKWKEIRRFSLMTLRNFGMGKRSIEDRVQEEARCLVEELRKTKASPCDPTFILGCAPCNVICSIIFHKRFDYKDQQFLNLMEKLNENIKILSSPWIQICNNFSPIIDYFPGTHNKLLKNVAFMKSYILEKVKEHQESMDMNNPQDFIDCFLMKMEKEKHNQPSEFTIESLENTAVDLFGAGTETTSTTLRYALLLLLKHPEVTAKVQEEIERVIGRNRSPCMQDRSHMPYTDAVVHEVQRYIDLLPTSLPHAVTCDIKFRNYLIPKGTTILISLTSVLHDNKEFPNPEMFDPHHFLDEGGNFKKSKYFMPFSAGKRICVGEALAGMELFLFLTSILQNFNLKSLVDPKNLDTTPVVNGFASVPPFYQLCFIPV

COc1ncc(C)cc1CC[C@@](O)(CC(=O)O)C(=O)O
inhibition [1]: inactive
inhibition [2]: inactive
solubility thermodynamic [3]: 24 µM (≈ 6.8 µg/mL)
inhibition [4]: inactive
clearance [5]: 15.8 mL/min/kg
IC50 [6]: 120 nM
inhibition [7]: inactive
inhibition [8]: inactive
inhibition (Mus musculus [9]): Active
inhibition [10]: inactive
inhibition [11]: inactive
inhibition [12]: inactive
inhibition [13]: inactive
inhibition [14]: inactive
inhibition (INH) (Cytochrome P450 2C9): Not Active
inhibition [15]: inactive
inhibition [16]: inactive
inhibition (INH) (Cytochrome P450 2D6): Not Active
inhibition [17]: inactive
inhibition (Homo sapiens): inactive
hepatocyte CLint [18]: < 6 µL/min/1e6 cells
inhibition [19]: inactive
inhibition [20]: inactive
inhibition (INH) (Cytochrome P450 1A2): Not Active
inhibition [21]: inactive
inhibition [22]: inactive
IC50 [23]: 210 nM
inhibition [24]: inactive
inhibition (INH) (Cytochrome P450 2C8): Not Active
Activity (Mus musculus [25]): inactive
IC50 (Rattus norvegicus [26]): 1400 nM
inhibition [27]: inactive
inhibition [28]: inactive
inhibition (INH) [29]: Not Active
Activity (Rattus norvegicus [30]): Active
Activity (Rattus norvegicus [31]): Active
AUC(0-t) [32]: 4890 ng·h/mL
inhibition [33]: inactive
inhibition (INH) [34]: Not Active
inhibition [35]: inactive
IC50 (Rattus norvegicus [36]): 1000 nM
hepatocyte CLint [37]: < 6 µL/min/1e6 cells
inhibition [38]: inactive
inhibition [39]: inactive
inhibition [40]: inactive
inhibition [41]: inactive
inhibition [42]: inactive
inhibition [43]: inactive
inhibition [44]: inactive
inhibition [45]: inactive
